Laboratory results: patent US5134137A, “Cephalosporin antibiotics” (The Upjohn Company, priority 1990, dated 1992)
In brackets after ≈: the same amount, converted by molar mass. Where two headings read alike, the source gives them in different places.

Columns and labels:
Assay type in all cases: cell-based
Pasteurella hemolytica = test: MIC (minimum inhibitory concentration), agar dilution, Pasteurella hemolytica; conditions: Pasteurella, read-out: MIC
Procedure: (§1) Stock solution of each test antibiotic compound were prepared to have a concentration of 2 mg. of the test compound per milliliter in sterile water of 0.1M ammonium acetate solution. The amount of each compound used was adjusted for base compound activity as calculated from the purity data for the selected batch of compound.
(§2) The dilution procedure described by Washington and Sutter [Manual of Clinical Microbiology, 3rd, Edit. (Lennett, E. H. et al, Eds.), pp. 453-458 (1980), American Society for Microbiology, Washington, D.C.] was modified so that serial concentrations of 128 to 0.0625 microgram/ml. in sterile water was obtained. Then 1.5 ml. aliquots of these test antibiotic dilution mixtures are added to 13.5 molten (50° C.) Mueller-Hinton agar. Each resulting mixture is poured into 15×100 mm, sterile Petri plates and allowed to dry at room temperature overnight.
(§3) Test bacterial cultures are maintained at -70° C. on glass beads. [See R. J. Yancey, Jr. et al, Amer. Jr. of Vet. Research, 48, No. 7, pp. 1050-1053, (1987)]. At least one bacteria-laden bead per culture is dropped into one ml. of brain heart infusion (BHI) broth for overnight culture at 37° C. in 5% V/V carbon dioxide in air atmosphere.
(§4) On the data of assay, 2 to 8 drops of the bacterial broth cultures are transferred to fresh BHI broth (1 ml.) and the mixture is incubated for 4 to 6 hours at 37° C. in a 5% V/V carbon dioxide in air atmosphere. The resulting cultures are then diluted to match a 0.5 MacFarland standard and further diluted 1:20 V/V with sterile saline solution.
(§5) A 0.001 ml. drop of the resulting mixture, containing approximately 10^3 to 10^4 colony forming units (CFU) of each test bacteria organism, is dispensed onto the surface of the test antibiotic compound test plates with a Steer's type replicator. The resulting innoculated plates are incubated 16 to 18 hours at 37° C. with a carbon dioxide atmosphere.
as §1, with “Stock solutions” for “Stock solution”
as §2, with “mm.” for “mm,”
as §2, with “for Microbiology.” for “for Microbiology,”, “15×100 mm.” for “15×100 mm,”
as §3, with “culture” for “cultures”
(§6) On the day of assay, 2 to 8 drops of the bacterial broth cultures are transferred to fresh BHI broth (1 ml.) and the mixture is incubated for 4 to 6 hours at 37° C. in a 5% V/V carbon dioxide in air atmosphere. […]

Pasteurella multocida = test: MIC, agar dilution, Pasteurella multocida; conditions: Pasteurella multocida; strain UC9581; read-out: MIC
Procedure: as §1, §2, §3, §4, §5
as §1, with “Stock solutions” for “Stock solution”
as §2, with “mm.” for “mm,”
as §2, with “for Microbiology.” for “for Microbiology,”, “15×100 mm.” for “15×100 mm,”
as §3, with “culture” for “cultures”
as §6

Escherichia coli = test: MIC, agar dilution, Escherichia coli; conditions: Escherichia coli, read-out: MIC
Procedure: as §1, §2, §3, §4, §5
as §1, with “Stock solutions” for “Stock solution”
as §2, with “mm.” for “mm,”
as §2, with “for Microbiology.” for “for Microbiology,”, “15×100 mm.” for “15×100 mm,”
as §3, with “culture” for “cultures”
as §6

Salmonella choleraesuis = test: MIC, agar dilution, Salmonella choleraesuis; conditions: Salmonella enterica, read-out: MIC
Procedure: as §1, §2, §3, §4, §5
as §1, with “Stock solutions” for “Stock solution”
as §2, with “mm.” for “mm,”
as §2, with “for Microbiology.” for “for Microbiology,”, “15×100 mm.” for “15×100 mm,”
as §3, with “culture” for “cultures”
as §6

Salmonella typhimurium = test: MIC, agar dilution, Salmonella typhimurium; conditions: Salmonella enterica, read-out: MIC
Procedure: as §1, §2, §3, §4, §5
as §1, with “Stock solutions” for “Stock solution”
as §2, with “mm.” for “mm,”
as §2, with “for Microbiology.” for “for Microbiology,”, “15×100 mm.” for “15×100 mm,”
as §3, with “culture” for “cultures”
as §6

[1] = tested on: Bordetella bronchiseptica; test: MIC, agar dilution, Bordetella bronchiseptica; conditions: Bordetella bronchiseptica; strain UC6313; read-out: MIC
Procedure: as §1, §2, §3, §4, §5
as §1, with “Stock solutions” for “Stock solution”
as §2, with “mm.” for “mm,”
as §2, with “for Microbiology.” for “for Microbiology,”, “15×100 mm.” for “15×100 mm,”
as §3, with “culture” for “cultures”
as §6

Pseudomonas aeruginosa = test: MIC, agar dilution, Pseudomonas aeruginosa; conditions: Pseudomonas aeruginosa, ATCC27853; strain ATCC 27853; read-out: MIC
Procedure: as §1, §2, §3, §4, §5
as §1, with “Stock solutions” for “Stock solution”
as §2, with “mm.” for “mm,”
as §2, with “for Microbiology.” for “for Microbiology,”, “15×100 mm.” for “15×100 mm,”
as §3, with “culture” for “cultures”
as §6

Staphylococcus aureus = test: MIC, agar dilution, Staphylococcus aureus; conditions: Staphylococcus aureus, read-out: MIC
Procedure: as §1, §2, §3, §4, §5
as §1, with “Stock solutions” for “Stock solution”
as §2, with “mm.” for “mm,”
as §2, with “for Microbiology.” for “for Microbiology,”, “15×100 mm.” for “15×100 mm,”
as §3, with “culture” for “cultures”
as §6

Streptococcus agalactiae = test: MIC, agar dilution, Streptococcus agalactiae; conditions: Streptococcus agalactiae, read-out: MIC
Procedure: as §1, §2, §3, §4, §5
as §1, with “Stock solutions” for “Stock solution”
as §2, with “mm.” for “mm,”
as §2, with “for Microbiology.” for “for Microbiology,”, “15×100 mm.” for “15×100 mm,”
as §3, with “culture” for “cultures”
as §6

Streptococcus bovis = test: MIC, agar dilution, Streptococcus bovis; conditions: Streptococcus equinus; strain UC6281; read-out: MIC
Procedure: as §1, §2, §3, §4, §5
as §1, with “Stock solutions” for “Stock solution”
as §2, with “mm.” for “mm,”
as §2, with “for Microbiology.” for “for Microbiology,”, “15×100 mm.” for “15×100 mm,”
as §3, with “culture” for “cultures”
as §6

[2] = tested on: Streptococcus dysgalactiae; test: MIC, agar dilution, Streptococcus dysgalactiae; conditions: Streptococcus dysgalactiae; strain UC251; read-out: MIC
Procedure: as §1, §2, §3, §4, §5
as §1, with “Stock solutions” for “Stock solution”
as §2, with “mm.” for “mm,”
as §2, with “for Microbiology.” for “for Microbiology,”, “15×100 mm.” for “15×100 mm,”
as §3, with “culture” for “cultures”
as §6

Enterococcus faecium = test: MIC, agar dilution, Enterococcus faecium; conditions: Enterococcus faecium; strain UC241; read-out: MIC
Procedure: as §1, with “Stock solutions” for “Stock solution”
as §2, §3, §4, §5, §1
as §2, with “mm.” for “mm,”
as §2, with “for Microbiology.” for “for Microbiology,”, “15×100 mm.” for “15×100 mm,”
as §3, with “culture” for “cultures”
as §6

Enterococcus faecalis = test: MIC, agar dilution, Enterococcus faecalis; conditions: Enterococcus faecalis; strain UC694; read-out: MIC
Procedure: as §1, with “Stock solutions” for “Stock solution”
as §2, §3, §4, §5, §1
as §2, with “mm.” for “mm,”
as §2, with “for Microbiology.” for “for Microbiology,”, “15×100 mm.” for “15×100 mm,”
as §3, with “culture” for “cultures”
as §6

Streptococcus suis = test: MIC, agar dilution, Streptococcus suis; conditions: Streptococcus suis; strain 650-2; read-out: MIC
Procedure: as §1, §2, §3, §4, §5
as §1, with “Stock solutions” for “Stock solution”
as §2, with “mm.” for “mm,”
as §2, with “for Microbiology.” for “for Microbiology,”, “15×100 mm.” for “15×100 mm,”
as §3, with “culture” for “cultures”
as §6

Streptococcus uberis = test: MIC, agar dilution, Streptococcus uberis; conditions: Streptococcus uberis, read-out: MIC
Procedure: as §1, §2, §3, §4, §5
as §1, with “Stock solutions” for “Stock solution”
as §2, with “mm.” for “mm,”
as §2, with “for Microbiology.” for “for Microbiology,”, “15×100 mm.” for “15×100 mm,”
as §3, with “culture” for “cultures”
as §6

Corynebacterium pyogenes = test: MIC, agar dilution, Corynebacterium pyogenes; conditions: strain 213-2; read-out: MIC
Procedure: as §1, §2, §3, §4, §5
as §1, with “Stock solutions” for “Stock solution”
as §2, with “mm.” for “mm,”
as §2, with “for Microbiology.” for “for Microbiology,”, “15×100 mm.” for “15×100 mm,”
as §3, with “culture” for “cultures”
as §6

Micrococcus luteus = test: MIC, agar dilution, Micrococcus luteus; conditions: Micrococcus luteus; strain UC130; read-out: MIC
Procedure: as §1, §2, §3, §4, §5
as §1, with “Stock solutions” for “Stock solution”
as §2, with “mm.” for “mm,”
as §2, with “for Microbiology.” for “for Microbiology,”, “15×100 mm.” for “15×100 mm,”
as §3, with “culture” for “cultures”
as §6

[3] = CHOLERAESUIS / UC6073, strain UC6073
[4] = CHOLERAESUIS / UC6077, strain UC6077
[5] = TYPHIMURIUM / UC6162, strain UC6162
[6] = TYPHIMURIUM / UC6164, strain UC6164

SMILES | MIC (Pasteurella hemolytica; strain UC6531) | MIC (Pasteurella hemolytica; strain UC6532) | MIC (Pasteurella hemolytica; strain UC9582) | MIC (Pasteurella multocida) | MIC (Escherichia coli; strain UC3784) | MIC (Escherichia coli; strain UC6720) | MIC (Escherichia coli; strain UC9670) | MIC (Salmonella choleraesuis; [3]) | MIC (Salmonella choleraesuis; [4]) | MIC (Salmonella typhimurium; [5]) | MIC (Salmonella typhimurium; [6]) | MIC [1] | MIC (Pseudomonas aeruginosa) | MIC (Staphylococcus aureus; strain UC6093) | MIC (Staphylococcus aureus; strain UC6097) | MIC (Staphylococcus aureus; strain UC9203) | MIC (Streptococcus agalactiae; strain UC3947) | MIC (Streptococcus agalactiae; strain UC6892) | MIC (Streptococcus bovis) | MIC [2] | other results
CCCCSSCC1=C(C(=O)O)N2C(=O)[C@@H](NC(=O)/C(=N\OC)c3csc(N)n3)[C@H]2SC1 [Example 12] | 0.5 µg/mL (≈ 0.966 µM) | 0.5 µg/mL (≈ 0.966 µM) | 0.5 µg/mL (≈ 0.966 µM) | 8 µg/mL (≈ 15.5 µM) | 8 µg/mL (≈ 15.5 µM) | 16 µg/mL (≈ 30.9 µM) | 8 µg/mL (≈ 15.5 µM) | 32 µg/mL (≈ 61.8 µM) | 32 µg/mL (≈ 61.8 µM) | 16 µg/mL (≈ 30.9 µM) | 32 µg/mL (≈ 61.8 µM) | > 32 µg/mL | > 32 µg/mL | 4 µg/mL (≈ 7.73 µM) | 4 µg/mL (≈ 7.73 µM) | 4 µg/mL (≈ 7.73 µM) | 2 µg/mL (≈ 3.86 µM) | > 32 µg/mL | > 32 µg/mL | ≤ 0.06 µg/mL | MIC (Enterococcus faecium): > 32 µg/mL; MIC (Enterococcus faecalis): > 32 µg/mL; MIC (Streptococcus suis): ≤ 0.06 µg/mL; MIC (Streptococcus uberis; strain UC3946): 0.13 µg/mL (≈ 0.251 µM); MIC (Streptococcus uberis; strain UC6159): 8 µg/mL (≈ 15.5 µM); MIC (Corynebacterium pyogenes): 32 µg/mL (≈ 61.8 µM); MIC (Micrococcus luteus): ≤ 0.06 µg/mL
CO/N=C(\C(=O)N[C@@H]1C(=O)N2C(C(=O)O)=C(CSSc3ccc(Cl)cc3)CS[C@H]12)c1csc(N)n1 [Example 17] | ≤ 0.06 µg/mL | 0.13 µg/mL (≈ 0.227 µM) | 0.13 µg/mL (≈ 0.227 µM) | ≤ 0.06 µg/mL | 2 µg/mL (≈ 3.5 µM) | 4 µg/mL (≈ 6.99 µM) | 8 µg/mL (≈ 14 µM) | 8 µg/mL (≈ 14 µM) | 8 µg/mL (≈ 14 µM) | 4 µg/mL (≈ 6.99 µM) | 4 µg/mL (≈ 6.99 µM) | > 32 µg/mL | > 32 µg/mL | 4 µg/mL (≈ 6.99 µM) | 2 µg/mL (≈ 3.5 µM) | 2 µg/mL (≈ 3.5 µM) | ≤ 0.06 µg/mL | ≤ 0.06 µg/mL | ≤ 0.06 µg/mL | ≤ 0.06 µg/mL | MIC (Enterococcus faecium): > 32 µg/mL; MIC (Enterococcus faecalis): > 32 µg/mL; MIC (Streptococcus suis): ≤ 0.06 µg/mL; MIC (Streptococcus uberis; strain UC3946): ≤ 0.06 µg/mL; MIC (Streptococcus uberis; strain UC6159): 4 µg/mL (≈ 6.99 µM); MIC (Corynebacterium pyogenes): ≤ 0.06 µg/mL; MIC (Micrococcus luteus): ≤ 0.06 µg/mL
